Experimental data reported in patent US4470977A, “Antiemetic and antipsychotic agents” (Adria Laboratories, Inc., priority 1982, dated 1984).

Tests used:
[1] = test system: medullary chemoreceptor trigger zone (CTZ); experiment: Antiemetic Screen: Antagonism to Apomorphine Induced Emesis In the Dog; format: in vivo, beagle dogs; design: key to Antagonism to Apomorphine Induced Emesis: If both animals receiving a particular treatment are protected (i.e., no emetic response within one hour after apomorphine), the test compound is defined as active (+); conditions: for Antagonism to Apomorphine Induced Emesis: 10 mg/kg sc, beagle dogs, 0.1 mg/kg sc apomorphine HCl one hour later
Method: Each compound is administered subcutaneously (sc) to two beagle dogs at 10.0 mg/kg. One hour following administration of the test compound, each animal receives 0.1 mg/kg, sc, of apomorphine HCl. Apomorphine consistently evokes an immediate emetic response through direct dopaminergic interaction at the medullary chemoreceptor trigger zone (CTZ). Antiemetic compounds which act at the CTZ and/or the midbrain vomiting center will block this effect of apomorphine. If both animals receiving a particular treatment are protected (i.e., no emetic response within one hour after apomorphine), the test compound is defined as active (+). In instances where protection is observed in only 1 of the 2 animals, the experiment is repeated in two additional animals and the results of the two tests are combined. Compounds which protect 3 out of 4 animals are then defined as active. The results are shown in Table 4 below and indicate that each of the invention compounds is active against emesis.

[2] = test system: mammary gland; experiment: Effect of Sulpiride and Sulpiride Analogs on Mammary Gland Development in Female Sprague Dawley Rats; format: in vivo; conditions: for Number of Animals with Mammary Hypertrophy: n = 6 female Sprague Dawley rats, 0.02% drug in chow, 14 days
From the text: The animals were individually caged during the 14-day study, with rat chow and tap water permitted ad libitum. The rat chow fed to the control group contained no drug, while that fed to the other groups contained 0.02% drug. Food cups were weighed and refilled on day 7 during the study. On day 14 of the study, the animals were sacrificed by asphyxiation in a CO2 atmosphere and then were weighed. The abdominal skin was cut along the midline from the pelvis to the sternum and separated from underlying tissues by blunt dissection. Each animal was then examined grossly for mammary gland enlargement.

[3] = test system: dopaminergic receptors; experiment: Antagonism to Apomorphine Induced Climbing Behavior; format: in vivo, mouse; conditions: for Antagonism (20 min. After): 20 minutes after 1 mg/kg s.c. apomorphine, doses 6.25 to 100 mg/kg; for Antagonism (20 min. After) / ED50: mouse; for ED50: antagonism to apomorphine (1 mg/kg s.c.) induced climbing behavior, p.o.; for apomorphine induced climbing behavior (in words): indicator of antipsychotic activity
From the text: The effect of each of the compounds in Table 1 on apomorphine induced climbing behavior related to stimulation of dopaminergic receptors was studied under the experimental conditions described by Costetin et al, 1975, Rapid and Dissociated Changes in Sensitivities of Different Dopamine Receptors in Mouse Brain, Nature, 257, 405.

[4] = test system: dopamine receptors; conditions: cited from earlier work

SMILES	antiemetic effect (in words) [1]	Antagonism to Apomorphine Induced Emesis [1]	mammary hypertrophy (in words) [2]	Number of Animals with Mammary Hypertrophy [2] [animals]	Antagonism (20 min. After) [3]	ED50 [3]	apomorphine induced climbing behavior (in words) [3]	undesirable side effect [4]
CCN1CCCC1CNC(=O)c1cccc(Cl)c1OC (stereo not drawn) [Compound 1, 3-chloro-N-(1-ethyl-2-pyrrolidinylmethyl)-2-methoxybenzamide]	possess an antiemetic effect	+	without mammary hypertrophy	0	Yes	26.8 (20.7-38.5) mg/kg p.o.	suppress apomorphine induced climbing behavior	–
CCN1CCCC1CNC(=O)c1ccc(Cl)cc1OC (stereo not drawn) [Compound 2, 4-chloro-N-(1-ethyl-2-pyrrolidinylmethyl)-2-methoxybenzamide]	possess an antiemetic effect	+	without mammary hypertrophy	0	Yes	–	suppress apomorphine induced climbing behavior	–
CCN1CCCC1CNC(=O)c1cc(Cl)ccc1OC (stereo not drawn) [Compound 3, 5-chloro-N-(1-ethyl-2-pyrrolidinylmethyl)-2-methoxybenzamide]	possess an antiemetic effect	+	without mammary hypertrophy	0	Yes	–	suppress apomorphine induced climbing behavior	–
CCN1CCCC1CNC(=O)c1ccccc1OC (stereo not drawn) [Compound 4, N-(1-ethyl-2-pyrrolidinylmethy)-2-methoxybenzamide]	possess an antiemetic effect	+	without mammary hypertrophy	0	Yes	–	suppress apomorphine induced climbing behavior	–
CCN1CCCC1CNC(=O)c1ccc(C)cc1OC (stereo not drawn) [Compound 5, N-(1-ethyl-2-pyrrolidinylmethyl)-2-methoxy-4-methylbenzamide]	–	+	–	0	Yes	–	–	–
CCN1CCCC1CNC(=O)c1cc(C)ccc1OC (stereo not drawn) [Compound 6, N-(1-ethyl-2-pyrrolidinylmethyl)-2-methoxy-5-methylbenzamide]	–	+	–	0	Yes	–	–	–
CCN1CCCC1CNC(=O)c1cccc([N+](=O)[O-])c1OC (stereo not drawn) [Compound 7, N-(1-ethyl-2-pyrrolidinylmethyl)-2-methoxy-3-nitrobenzamide]	–	+	–	0	Yes	–	–	–
CCN1CCCC1CNC(=O)c1cccc(C)c1[N+](=O)[O-] (stereo not drawn) [Compound 8, N-(1-ethyl-2-pyrrolidinylmethyl)-3-methyl-2-nitrobenzamide]	–	+	–	0	No	–	–	–
CCN1CCCC1CNC(=O)c1ccccc1N (stereo not drawn) [Compound 9, 2-amino-N-(1-ethyl-2-pyrrolidinylmethyl)-benzamide]	possess an antiemetic effect	+	without mammary hypertrophy	0	Yes	–	suppress apomorphine induced climbing behavior	–
CCN1CCCC1CNC(=O)c1cccc(C)c1N (stereo not drawn) [Compound 10, 2-amino-N-(1-ethyl-2-pyrrolidinylmethyl)-3-methylbenzamide]	–	+	–	0	No	–	–	–
CCN1CCCC1CNC(=O)c1cccc(N)c1C (stereo not drawn) [Compound 11, 3-amino-N-(1-ethyl-2-pyrrolidinylmethyl)-2-methylbenzamide]	–	+	–	0	No	–	–	–
CCN1CCCC1CNC(=O)c1cc(Cl)ccc1Cl (stereo not drawn) [Compound 12, 2,5-dichloro-N-(1-ethyl-2-pyrrolidinylmethyl)-benzamide]	possess an antiemetic effect	+	without mammary hypertrophy	0	Yes	–	suppress apomorphine induced climbing behavior	–
CCN1CCCC1CNC(=O)c1cccc(Cl)c1C (stereo not drawn) [Compound 13, 3-chloro-N-(1-ethyl-2-pyrrolidinylmethyl)-2-methylbenzamide]	–	+	–	0	No	–	–	–
CCN1CCCC1CNC(=O)c1cc(S(N)(=O)=O)ccc1OC (stereo not drawn) [Sulpiride, 2-methoxy-N-(1-ethyl-2-pyrrolidinylmethyl)-5-sulfamoyl benzamide, reference compound]	–	–	consistently produce mammary hypertrophy	6	Yes	24.3 (19.3-32.4) mg/kg p.o.	–	mammary hypertrophy
